Results as given in PMC10620186, “Recognition and reprogramming of E3 ubiquitin ligase surfaces by α-helical peptides” (Nature Communications, 2023).

Assays:
[1] = target: CHIP-TEAD4 ternary complex (Homo sapiens, UniProt Q15561+Q9UNE7); conditions: SPR ABA, Rmax compared with expected response
[2] = target: CHIP-PPIA ternary complex (Homo sapiens, UniProt P62937+Q9UNE7); conditions: SPR ABA, immobilized PPIA, 10 μM Helicon
[3] = target: VHL-ELOBC (Homo sapiens, UniProt P40337+Q15369+Q15370); conditions: competition FP, 15 nM VHL-ELOBC, 5 nM HXC78, 1 h room temperature, n = 2

Row | SMILES | ternary complex formation with CHIP and PPIA, of the expected response [2] [%] | also measured
1 | CC(=O)N1CCC[C@H]1C(=O)N[C@H](C(=O)N1CCC[C@H]1C(=O)N[C@@H](Cc1ccccc1)C(=O)N[C@@H](Cc1ccccc1)C(=O)N[C@@H](Cc1c[nH]c2ccccc12)C(=O)N[C@@H](CCC(=O)O)C(=O)N[C@H]1CSCC(=O)Nc2ccc(cc2)NC(=O)CSC[C@@H](C(=O)N[C@H](C(=O)N[C@@H](C)C(=O)N2CCC[C@H]2C(=O)N[C@@H](CCCNC(=N)N)C(=O)N[C@H](C(=O)N[C@@H](CCC(N)=O)C(N)=O)C(C)C)[C@@H](C)O)NC(=O)[C@H]([C@@H](C)O)NC(=O)[C@H](C)NC(=O)[C@H](C)NC(=O)[C@H](C)NC(=O)[C@H](Cc2ccccc2)NC(=O)[C@H](CCC(N)=O)NC1=O)[C@@H](C)O [Helicon H323] |  | amount of ternary complex formed, CHIP and TEAD4 [1]: 65%
2 | CC(=O)N1CCC[C@H]1C(=O)N[C@@H](C)C(=O)N[C@@H](CCC(N)=O)C(=O)N[C@@H](CC(=O)O)C(=O)N[C@@H](CC(=O)O)C(=O)N[C@@H](Cc1c[nH]c2ccccc12)C(=O)N[C@@H](CO)C(=O)N[C@H]1CSCC(=O)Nc2ccc(cc2)NC(=O)CSC[C@@H](C(=O)N[C@@H](CCC(=O)O)C(=O)N[C@@H](CC(N)=O)C(=O)N[C@@H](Cc2ccc(O)cc2)C(=O)N[C@H](C(=O)N[C@@H](CCCNC(=N)N)C(=O)N[C@H](C(N)=O)C(C)C)C(C)C)NC(=O)[C@H](CC(C)C)NC(=O)[C@H](Cc2ccc(O)cc2)NC(=O)[C@H](C)NC(=O)[C@H](C)NC(=O)[C@H](CCC(=O)O)NC(=O)[C@H](C(C)C)NC1=O [Helicon H326] | 3 | 
3 | CC[C@H](C)[C@H](NC(=O)[C@@H](NC(=O)CNC(=O)[C@H](CC(=O)O)NC(=O)[C@@H](NC(=O)[C@H](Cc1c[nH]c2ccccc12)NC(=O)[C@@H]1CSCC(=O)Nc2ccc(cc2)NC(=O)CSC[C@H](NC(=O)[C@H](CCSC)NC(=O)[C@@H]2CCCN2C(=O)[C@H](C)NC(=O)[C@H](CC(C)C)NC(=O)[C@H](CCSC)NC(=O)[C@H](CC(=O)O)NC(=O)[C@@H]2CCCN2C(C)=O)C(=O)NCC(=O)N2CCC[C@H]2C(=O)N[C@@H](C)C(=O)N[C@@H](C)C(=O)N[C@@H](CO)C(=O)N[C@@H]([C@@H](C)CC)C(=O)N1)[C@@H](C)CC)C(C)C)C(N)=O [Helicon H328] | 11 | 
4 | Cc1ncsc1-c1ccc(CNC(=O)[C@@H]2C[C@@H](O)CN2C(=O)[C@@H](NC(=O)C2(C#N)CC2)C(C)(C)C)cc1 [VH298, (2S,4R)−1-((S)−2-(1-Cyanocyclopropanecarboxamido)−3,3-dimethylbutanoyl)−4-hydroxy-N-(4-(4-methylthiazol-5-yl)benzyl)pyrrolidine-2-carboxamide] |  | competition with HXC78 for binding VHL-ELOBC [3]: potently competes
